Test results taken from patent US4156731A, “Heterocyclic oxime compounds and carbamoyloxime derivatives” (priority 1976, dated 1979).

What was measured:
[1] = tested on: bean aphid (Aphis fabae Scop.); experiment: Bean Aphid Foliage Spray Test; assay type: in vivo; set-up: key: A: Excellent control; B: Partial control; C: No control; details: 500 ppm foliage spray, 24 hour holding period
Experimental: (§1) Selected species of the new compounds were evaluated to determine their pesticidal activity against mites and certain insects, including anaphid, a caterpillar, a beetle and a fly.
(§2) Suspensions of the test compounds were prepared by dissolving one gram of compound in 50 milliliters of acetone in which had been dissolved 0.1 gram (10 percent of the weight of compound) of an alkylphenoxy polyethoxyethanol surfactant, as an emulsifying or dispersing agent. The resulting solution was mixed into 150 milliliters of water to give roughly 200 milliliters of a suspension containing the compound in finely divided form. The thus-prepared stock suspension contained 0.5 percent by weight of test compound. The test concentrations in parts per million by weight employed in the tests described hereinbelow were obtained by appropriate dilutions of the stock suspension with water. The test procedures were as follows:
Bean Aphid Foliage Spray Test
Adults and nymphal stages of the bean aphid (Aphis fabae Scop.) reared on potted dwarf nasturtium plants at 65°-70° F. and 50-70 per cent relative humidity, constituted the test insects. For testing purposes, the number of aphids per pot was standardized to 100-150 by trimming plants containing excess aphids.
The test compounds were formulated by diluting the stock suspension with water to give a suspension containing 500 parts of test compound per million parts of final formulation.
The potted plants (one pot per compound tested) infested with 100-150 aphids, were placed on a revolving turntable and sprayed with 100-110 milliliters of test compound formulation by use of a DeVilbiss spray gun set at 40 psig. air pressure. This application, which lasted 25 seconds, was sufficient to wet the plants to run-off. As a control, 100-110 milliliters of a water-acetone-emulsifier solution containing no test compound were also sprayed on infested plants. After spraying, the pots were placed on their sides on a sheet of white standard mimeograph paper which had been previously ruled to facilitate counting. Temperature and humidity in the test room during the 24 hour holding period were 65°-70° F. and 50-70 per cent, respectively. Aphids which fell into the paper and were unable to remain standing after being uprighted were considered dead. Aphids remaining on the plants wre observed closely for movement and those which were unable to move the length of the body upon stimulator by prodding were considered dead. Per cent mortality was recorded for various concentration levels.
(§3) In these tests the pesticidal activity of the compounds against aphid, mite, Southern Armyworm, Mexican Bean Beetle, and house fly was rated as follows: […]

[2] = tested on: two spotted mite (Tetranychus urticae Koch); experiment: Mite Foliage Spray Test; assay type: in vivo; set-up: key: A: Excellent control; B: Partial control; C: No control; details: 500 ppm foliage spray, six days
Experimental: as §1, §2
Adults and nymphal stages of the two spotted mite (Tetranychus urticae Koch), reared on Tendergreen bean plants at 80±5 per cent relative humidity, were the test organisms. Infested leaves from a stock culture were placed on the primary leaves of two bean plants six to eight inches in height, growing in a two-and-a-half inch clay pot. 150-200 mites, a sufficient number for testing, transferred from the excised leaves to the fresh plants in a period of twenty four hours. Following the twenty four hour transfer period, the excised leaves were removed from the infested plants. The test compounds were formulated by diluting the stock suspension with water to give a suspension with water to give a suspension containing 500 parts of test compound per million parts of final formulation. The potted plants (one pot per compound) were placed on a revolving turntable and sprayed with 100-110 milliliters of test compound formulation by use of a DeVilbiss spray gun set at 40 psig. air pressure. This application, which lasted for 25 seconds, was sufficient to wet the plants to run-off. As a control, 100-110 milliliters of a water solution containing acetone and emulsifier in the same concentrations as the test compound formulation, but containing no test compound, were also sprayed on infested plants. The sprayed plants were held at 80±5 per cent relative humidity for six days, after which a mortality count of motile forms were made. Microscopic examination for motile forms was made on the leaves of the test plants. Any individual which was capable of locomotion upon prodding, was considered living.
as §3

[3] = tested on: southern armyworm (Prodenia Eridania, (Cram.)); experiment: Southern Armyworm Leaf Spray Test; assay type: in vivo; set-up: key: A: Excellent control; B: Partial control; C: No control; details: larvae, 500 ppm leaf spray, three days
Experimental: as §1, §2
Southern Armyworm Leaf Spray Test
Larvae of the southern armyworm (Prodenia Eridania, (Cram.), reared on Tendergreen bean plants at a temperature of 80°±5° F. and a relative humidity of 50±5 per cent, constituted the test insects.
The test compounds were formulated by diluting the stock suspension with water to give a suspension containing 500 parts of test compound per million parts of final formulation. Potted Tendergreen bean plants of standard height and age were placed on a revolving turntable and sprayed with […] of test compound formulation by use of a DeVilbiss spray gun set at 10 psig. air pressure.
This application, which lasted 25 seconds, was sufficient to wet plants to run-off. As a control, 100-110 milliliters of a water-acetone-emulsifier solution containing no test compound were also sprayed on infested plants. When dry, the paired leaves were separated and each one was placed in a 9 centimeter Petric dish lined with moistened filter paper. Five randomly selected larvae were introduced into each dish and the dishes were closed. The closed dishes were labeled and held at 80°-85° F. for three days. Although the larvae could easily consume the whole leaf within twenty-four hours, no more food was added. Larvae which were unable to move the length of the body, even upon stimulation by prodding, were considered dead. Per cent mortality was recorded for various concentration levels.
as §3

[4] = tested on: Mexican bean beetle (Epilachna varivestis, Muls.); experiment: Mexican Bean Beetle Leaf Spray Test; assay type: in vivo; set-up: key: A: Excellent control; B: Partial control; C: No control; details: fourth instar larvae, 500 ppm leaf spray, three days
Experimental: as §1, §2
Mexican Bean Beetle Leaf Spray Test
Fourth instar larvae of the Mexican bean beetle (Epilachna varivestis, Muls.), reared on Tendergreen bean plants at a temperature of 80°±5° F. and 50±5 per cent relative humidity, were the test insects.
The test compounds were formulated by diluting the stock suspension with water to give a suspension containing 500 parts of test compound per million parts of final formulation. Potted Tendergreen bean plants of standard height and age were placed on a revolving turntable and sprayed with 100-110 milliliters of test compound formulation by use of DeVilbiss spray gun set at 10 psig air pressure. This application, which lasted 25 seconds, was sufficient to wet plants to run-off. As a control, 100-110 milliliters of a water-acetone-emulsifier solution containing no test compound were also sprayed on infested plants. When dry, the paired leaves were separated and each was placed in a 9 centimeter Petri dish lined with moistened filter paper. Five randomly selected larvae were introduced into each dish, and the dishes were closed. The closed dishes were labeled and held at a temperature of […]. for three days. Although the larvae could easily consume the leaf within 24 to 48 hours, no more food was added. Larvae which were unable to move the length of the body, even upon stimulation, were considered dead.
as §3

[5] = tested on: house flies (Musca domestica, L.); experiment: Fly Bait Test; assay type: in vivo; set-up: key: A: Excellent control; B: Partial control; C: No control; details: adults, 500 ppm in sugar bait, twenty four hours
Experimental: as §1, §2
Four to six day old adult house flies (Musca domestica, L.) reared according to the specifications of the Chemical Specialities Manufacturing Association (Blue Book, McNair-Dorland Co., NY., 1954; pages 234-244, 261) under controlled conditions of 80°±5° F. and 50±5 per cent relative humidity, were the test insects. The flies were immobilized by anesthetizing with carbon dioxide and twenty five immobilized individuals, males and females, were transferred to a cage consisting of a standard food stainer about five inches in diameter which was inverted over a wrapping-paper-covered surface. The test compounds were formulated by diluting the stock suspension with a 10 per cent (by weight) sugar solution to give a suspension containing 500 parts of test compound per million parts of final formulation, by weight. Ten milliliters of the test formulation were added to a souffle cup containing a one inch square of an absorbent cotton pad. This bait cup was introduced and centered on the blotting paper under the food strainer prior to admitting the anesthetized flies. The caged flies were allowed to feed on the bait for twenty four hours, at a temperature of 80°±5° F. and the relative humidity of 50±5 per cent.
as §3

[6] = Peroral toxicity to mammals (rat); details: in vivo, po, mortality rate of 50 percent, read-out: A. O. Rat LD50
Experimental: Certain of these compositions were also evaluated to determine their peroral toxicity to mammals. The animal selected for this experiment was the rat.

SMILES	Bean Aphid pesticidal activity rating [1]	Mite pesticidal activity rating [2]	Southern Armyworm pesticidal activity rating [3]	Mexican Bean Beetle pesticidal activity rating [4]	House-Fly pesticidal activity rating [5]	LD50 [6] [mg/kg]
CN(SC(Cl)(Cl)Cl)C(=O)ON=C1SC(=C(C#N)C#N)SC1(C)C [LXIII]	A	C	C	A	C	538
CNC(=O)ON=C1SC(=NN(C)C)SC1(C)C [LV]	A	A	A	A	A	1.8
CNC(=O)ON=C1SC(=NS(=O)(=O)c2ccc(C)cc2)SC1(C)C [LIX]	C	C	C	C	C	–
CNC(=O)ON=C1SC(=NS(C)(=O)=O)SC1(C)C [LVII]	B	C	B	B	B	–
CNC(=O)ON=C1SC(=NC2CCCCC2)SC1(C)C [LIV]	A	B	C	B	A	–
CN(SN1CCOCC1)C(=O)ON=C1SC(=C(C#N)C#N)SC1(C)C [LXXIV]	A	C	B	C	C	–
CNC(=O)ON=C1SC(=NC#N)SC1(C)C [LXIX]	C	C	C	C	C	–
CN(C)N=C1SC(=NOC(=O)N(C)SC(Cl)(Cl)Cl)C(C)(C)S1 [LVI]	A	A	A	A	A	–
CNC(=O)ON=C1SC(=C(C#N)C#N)SC1(C)C [LXII]	C	C	C	C	C	–
CCCCN=C1SC(=NOC(=O)NC)C(C)(C)S1 [LII]	A	C	B	A	A	–
CCN=C1SC(=NOC(=O)N(C)SC(Cl)(Cl)Cl)C(C)(C)S1 [XLI, 5,5-Dimethyl-2-ethylimino-4-[[O-[N-methyl-N-(trichloromethanesulfenyl)carbamoyl]oximino]]-1,3-dithiolane]	A	A	B	A	A	–
CNC(=O)ON=C1SC(=C[N+](=O)[O-])SC1(C)C [LXVII]	B	C	A	A	A	–
CNC(=O)ON=C1SC(=S)SC1(C)C [LXXI]	A	B	B	A	B	–
CN=C1SC(=NOC(=O)N(C)SC(Cl)(Cl)Cl)C(C)(C)S1 [XLV]	A	A	A	A	A	–
CN(C)N=C1SC(=NOC(=O)N(C)SSC(C)(C)C)C(C)(C)S1 [XLII]	A	A	A	A	A	–
Cc1ccc(S(=O)(=O)N=C2SC(=NOC(=O)N(C)SC(Cl)(Cl)Cl)C(C)(C)S2)cc1 [LX]	C	C	B	B	B	–
CN(SSc1ccc(C(C)(C)C)cc1)C(=O)ON=C1SC(=C(C#N)C#N)SC1(C)C [LXXII]	A	C	C	A	C	–
